Assay results as given in the OPERA property sets (Mansouri et al. 2018).

| SMILES | logP |
| --- | --- |
| CCOP(=O)(Sc1ccccc1)Sc1ccccc1 | 3.48 |
| OC(c1ccc(Cl)cc1)(c1ccc(Cl)cc1)C(Cl)(Cl)Cl | 5.02 |
| O=C(NC(=O)c1c(F)cccc1F)Nc1cc(Cl)c(F)c(Cl)c1F | 4.56 |
| CC(C)N1C(=O)c2ccccc2NS1(=O)=O | 2.34 |
| Clc1nc(Cl)nc(Nc2ccccc2Cl)n1 | 3.88 |
| CCO/N=C(\OC(=O)c1ccccc1)c1c(OC)ccc(Cl)c1OC | 3.73 |
| CCCOP(=S)(OCCC)SCC(=O)N1CCCCC1C (stereo not drawn) | 4.04 |
| CC(C)OP(=O)(OC(C)C)SCc1ccccc1 | 3.34 |
| CC(C)OC(=O)C(C(=O)OC(C)C)=C1SCCS1 | 2.88 |
| CC12CC1(C)C(=O)N(c1cc(Cl)cc(Cl)c1)C2=O (stereo not drawn) | 3.08 |
| CCOP(=S)(OCC)Oc1cc(-c2ccccc2)on1 | 3.73 |
| Cc1ccc(S(=O)(=O)Oc2c(C(=O)c3ccc(Cl)cc3Cl)c(C)nn2C)cc1 | 3.9 |
| C#CCOS(=O)OC1CCCCC1Oc1ccc(C(C)(C)C)cc1 (stereo not drawn) | 5 |
